Measured values taken from patent publication US20210386367A1, “DEVICES AND SYSTEMS FOR GASTROINTESTINAL MICROBIOME DETECTION AND MANIPULATION” (Progenity, Inc., priority 2018, published 2021).
Values after ≈ are worked out from the molar mass of the structure shown. Read-outs that look alike come from different tables or passages of the source.

Key:
[1] = test system: Prevotella spp.; experiment: Agar dilution MIC, 30 clinical isolates; format: cell-based; conditions: for Mode: modal MIC
[2] = test system: Veillonella spp.; experiment: Agar dilution MIC, 30 clinical isolates; format: cell-based; conditions: for Mode: modal MIC
[3] = test system: S. pyogenes ATCC 49399; experiment: Broth microdilution MIC (time-kill study); format: cell-based, Streptococcus pyogenes
[4] = test system: S. agalactiae ATCC 13813; experiment: Time-kill assay; format: cell-based, Streptococcus agalactiae; conditions: 2×, 4×, 8× MIC; 2, 6, 24 hr
[5] = test system: B. vulgatus ATCC 8482; experiment: Time-kill assay; format: cell-based, Bacteroides vulgatus; conditions: 2×, 4×, 8× MIC; 2, 6, 24, 48 hr
[6] = test system: Streptococcus spp. (S. pneumoniae ATCC 49619, S. pyogenes ATCC 49399, S. agalactiae ATCC 13813); experiment: Agar dilution MIC (spontaneous mutation study; strain in conditions); format: cell-based
[7] = test system: Streptococcus spp.; experiment: Spontaneous mutation frequency assay; format: cell-based; conditions: selection at 4× and 8× MIC
Protocol: Initial values of the MIC were determined by agar dilution in accordance with guidelines from the Clinical and Laboratory Standards Institute (CLSI; (1) “Methods for Dilution Antimicrobial Susceptibility Tests for Bacteria That Grow Aerobically; Approved Standard; 11th ed.,” CLSI standard M07, 2018; (2) “Methods for Antimicrobial Susceptibility Testing of Anaerobic Bacteria; Approved Standard—Eighth Edition,” CLSI document M11-A8, 2012.).
The agar plates were prepared by mixing a ratio of 1.0 mL of concentrated drug to 49.0 mL of the appropriate molten (47° C.) agar; the drug-supplemented agar was mixed, poured into 15-by-150 mm petri dishes and allowed to solidify and dry at room temperature prior to inoculation. […] Each plate was allowed to cool at room temperature for at least 1 hr.
The isolates were streaked onto the appropriate agar medium and incubated for 20 hr (aerobes) or 48 hr (Bacteroides under anaerobic conditions). Using a sterile swab, several well-isolated colonies were removed and resuspended in sterile saline at a heavy cell density. Each plate was inoculated with 0.5 mL of the cell suspension (each test concentration was inoculated in duplicate). The target inoculum for each spontaneous mutation plate was 10^9-10 CFU. In addition, a portion of the inoculum from each isolate was enumerated by making dilutions, spreading on agar and counting colonies.
Once the inoculum was absorbed into the agar, the plates were incubated at 35° C. Aerobes were examined at 24 and 48 hr, and resulting colonies were counted. Bacteroides were incubated anaerobically for 48-72 hr in the anaerobe chamber and colonies were counted.
Colony counts from plates used to enumerate the initial inoculum density and from the resulting spontaneous mutation frequency test plates were determined. The inoculum size was calculated as CFU inoculated per plate. The spontaneous mutation frequency was calculated using the counts from duplicate spontaneous mutation assay test plates as follows:
If there were no colonies on the antibiotic selection plates, the spontaneous mutation frequency was reported as less than the frequency observed with one colony to indicate that the spontaneous mutation frequency was less than the limit of detection (one CFU). […] The mutation prevention concentration (MPC) was reported as the lowest concentration for which no mutants were selected.

[8] = test system: E. coli spontaneous mutants; experiment: Broth microdilution MIC of spontaneous mutants; format: cell-based, Escherichia coli; conditions: Escherichia coli
Protocol: Select isolates were subcultured onto agar containing drug at the selection concentration, were identified by MALDI, and were frozen for broth microdilution MIC testing as described below.
To determine whether colonies growing on drug selection plates had elevated MIC values to the selecting antibiotic, susceptibility testing by broth microdilution was conducted on isolated mutants following methodology recommended by CLSI (1), (2), and (3) “Performance Standards for Antimicrobial Susceptibility Testing; Twenty-Eighth Informational Supplement.,” CLSI document M100-S28, 2018.
All wells in columns 2 through 12 of a standard 96-well microdilution plate (Costar 3795) were filled with 150 μL of the appropriate diluent. Then, 300 μL of the test agents were added to the wells of column 1 of the plates at […] the highest final concentration to be tested. Serial two-fold dilutions were made across the rows through column 11 using the Biomek 2000. The wells of column 12 contained no drug and served as the growth control wells. This plate served as the “mother plate” from which selected MIC assay plates or “daughter plates” were made.
2 μL of drug solution from each well of a mother plate was added to each corresponding well of the daughter plate in a single step. A standardized inoculum of each aerobic test organism was prepared per CLSI methods to equal a 0.5 McFarland standard, followed by a dilution of 1:20 in MHB II. The plates were then inoculated with 10 μL of the diluted inoculum using the Biomek 2000 from low to high drug concentration, resulting in a final concentration of approximately 5×10^5 CFU/mL. An un-inoculated plate was incubated for the purpose of assessing solubility of the drug in the test media.
The plates for the aerobic tests were stacked 3-4 high, covered with a sterile lid on the top plate, and incubated aerobically at 35° C. for 18-20 hr. The MIC was recorded as the lowest concentration of drug that inhibited visible growth of the organism.

[9] = 30 Prevotella spp. clinical isolates
[10] = 30 Veillonella spp. clinical isolates

With Cc1ncc([N+](=O)[O-])n1CCO [MTZ] the “% R” value [1, 9] was 3%, the “% S” value [1, 9] was 97% and the MIC50 [1, 9] was 1 µg/mL (≈ 5.84 µM). For the same compound, the MIC90 [1, 9] was 8 µg/mL (≈ 46.7 µM), the MIC range [1, 9] was 0.12 to 32 µg/mL and the Mode [1, 9] was 1 µg/mL. For the same compound, the “% R” value [2, 10] was 17%, the “% S” value [2, 10] was 83% and the MIC50 [2, 10] was 4 µg/mL (≈ 23.4 µM). It also gave an MIC90 [2, 10] greater than 32 µg/mL and a Mode [2, 10] of 4 µg/mL.
In the case of CO/N=C(\C(=O)N[C@@H]1C(=O)N2C(C(=O)O)=C(CSc3nc(=O)c(=O)[nH]n3C)CS[C@H]12)c1csc(N)n1 [ceftriaxone], the MIC range [1] is reported as 0.12 to 128 µg/mL, the isolates resistant [1] is reported as 33% and the “isolates with intermediate resistance” value [1] is reported as 20%. The “% I” value [1, 9] was 20%, the “% R” value [1, 9] was 33% and the “% S” value [1, 9] was 47%. It also gave an MIC50 [1, 9] of 32 µg/mL (≈ 57.7 µM), an MIC90 [1, 9] of 64 µg/mL (≈ 115 µM) and an MIC range [1, 9] of 0.12 to 128 µg/mL. For the same compound, the MIC50 ([1]; Prevotella, read-out: MIC50) was 32 µg/mL (≈ 57.7 µM), the MIC90 ([1]; Prevotella, read-out: MIC90) was 64 µg/mL (≈ 115 µM) and the Mode [1, 9] was 64 µg/mL. For the same compound, the isolates resistant [2] was 3%, the “isolates with intermediate resistance” value [2] was 10% and the “% I” value [2, 10] was 10%. The “% R” value [2, 10] was 3%, the “% S” value [2, 10] was 87% and the MIC50 [2, 10] was 16 µg/mL (≈ 28.9 µM). The MIC90 [2, 10] was 32 µg/mL (≈ 57.7 µM), the MIC50 ([2]; Veillonella, read-out: MIC50) was 16 µg/mL (≈ 28.9 µM) and the MIC90 ([2]; Veillonella, read-out: MIC90) was 32 µg/mL (≈ 57.7 µM). It also gave a Mode [2, 10] of 16 µg/mL, an MIC ([3]; S. pyogenes ATCC 49399) of 0.015 µg/mL (≈ 0.027 µM) and an MIC ([3]; Streptococcus pyogenes, ATCC49399, broth microdilution, read-out: MIC) of 0.015 µg/mL (≈ 0.027 µM). For the same compound, the “time-kill kinetics outcome (bactericidal = ≥3 log reduction in CFU per mL)” value [4] was “bactericidal effect at 24 hr at 8×MIC, as did ceftriaxone (6 and 24 hr)”, the “time-kill kinetics outcome (bactericidal = ≥3 log reduction in CFU per mL)” value [5] was “bactericidal effect was observed at 8×MIC at 6, 24 and 48 hr; at 4×MIC at 6 and 24 hr; and at 2×MIC at 48 hr” and the MIC ([6]; Streptococcus agalactiae, S. agalactiae ATCC 13813, read-out: Agar MIC) was 0.06 µg/mL (≈ 0.108 µM). It also gave an MIC ([6]; Streptococcus pneumoniae, S. pneumoniae ATCC 49619, read-out: Agar MIC) of 0.06 µg/mL (≈ 0.108 µM), an MIC ([6]; Streptococcus pyogenes, S. pyogenes ATCC 49399, read-out: Agar MIC) of 0.03 µg/mL (≈ 0.0541 µM) and an MIC ([6]; over evaluated Streptococcus spp. (range stated jointly with other groups), read-out: MIC values (agar dilution)) of 0.03 to 0.06 µg/mL (≈ 0.0541 to 0.108 µM). The Spontaneous Mutation Frequency [7] was ≤ 9.52×10^−10, the MIC ([8]; ATCC25922, E. coli ATCC 25922, selected on rifaximin 4X MIC, Colony A) was 0.03 µg/mL and the MIC ([8]; ATCC25922, E. coli ATCC 25922, selected on rifaximin 4X MIC, Colony B) was 0.03 µg/mL. The MIC ([8]; ATCC25922, E. coli ATCC 25922, selected on rifaximin 8X MIC, Colony A) was 0.03 µg/mL, the MIC ([8]; ATCC25922, E. coli ATCC 25922 Parent (Table 52)) was 0.12 µg/mL and the MIC ([8]; ATCC35218, E. coli ATCC 35218, selected on rifaximin 4X MIC, Colony A) was 0.03 µg/mL. The MIC ([8]; ATCC35218, E. coli ATCC 35218, selected on rifaximin 4X MIC, Colony B) was 0.03 µg/mL, the MIC ([8]; ATCC35218, E. coli ATCC 35218, selected on rifaximin 8X MIC, Colony A) was 0.06 µg/mL and the MIC ([8]; ATCC35218, E. coli ATCC 35218, selected on rifaximin 8X MIC, Colony B) was 0.03 µg/mL. For the same compound, the MIC ([8]; ATCC35218, E. coli ATCC 35218 Parent (Table 52)) was 0.03 µg/mL, the MIC ([8]; E. coli MMX 1312, selected on ceftriaxone 4X MIC, Colony A) was 3 µg/mL and the MIC ([8]; E. coli MMX 1312, selected on ceftriaxone 4X MIC, Colony B) was 4 µg/mL. It also gave an MIC ([8]; E. coli MMX 1312, selected on ceftriaxone 4X MIC, Colony C) of 8 µg/mL, an MIC ([8]; E. coli MMX 1312, selected on ceftriaxone 8X MIC, Colony A) of 3 µg/mL and an MIC ([8]; E. coli MMX 1312, selected on ceftriaxone 8X MIC, Colony B) of 3 µg/mL. For the same compound, the MIC ([8]; E. coli MMX 1312, selected on ceftriaxone 8X MIC, Colony C) was 4 µg/mL, the MIC ([8]; E. coli MMX 1312, selected on rifaximin 4X MIC, Colony A) was 2 µg/mL and the MIC ([8]; E. coli MMX 1312, selected on rifaximin 4X MIC, Colony B) was 2 µg/mL. For the same compound, the MIC ([8]; E. coli MMX 1312, selected on rifaximin 8X MIC, Colony A) was 8 µg/mL, the MIC ([8]; E. coli MMX 1312, selected on rifaximin 8X MIC, Colony B) was 8 µg/mL and the MIC ([8]; E. coli MMX 1312 Parent) was 4 µg/mL. The MIC ([8]; E. coli MMX 1312 Parent (Table 49)) was 4 µg/mL, the MIC ([8]; E. coli MMX 1312 Parent (Table 52)) was 4 µg/mL and the MIC ([8]; E. coli MMX 1312 mutant selected on meropenem 4X MIC, colony A) was 4 µg/mL. The MIC ([8]; E. coli MMX 1312 mutant selected on meropenem 4X MIC, colony B) was 8 µg/mL, the MIC ([8]; E. coli MMX 1312 mutant selected on meropenem 4X MIC, colony C) was 4 µg/mL and the MIC ([8]; E. coli MMX 1312 mutant selected on meropenem 8X MIC, colony A) was 4 µg/mL. For the same compound, the MIC ([8]; E. coli MMX 1312 mutant selected on meropenem 8X MIC, colony B) was 4 µg/mL and the MIC ([8]; E. coli MMX 1312 mutant selected on meropenem 8X MIC, colony C) was 4 µg/mL.
Work on CN[C@H](CC(C)C)C(=O)N[C@H]1C(=O)N[C@@H](CC(N)=O)C(=O)N[C@H]2C(=O)N[C@H]3C(=O)N[C@H](C(=O)N[C@H](C(=O)O)c4cc(O)cc(O)c4-c4cc3ccc4O)[C@H](O)c3ccc(c(Cl)c3)Oc3cc2cc(c3O[C@@H]2O[C@H](CO)[C@@H](O)[C@H](O)[C@H]2O[C@H]2C[C@](C)(N)[C@H](O)[C@H](C)O2)Oc2ccc(cc2Cl)[C@H]1O [vancomycin, Vancomycin] yielded an MIC ([3]; Streptococcus pyogenes, ATCC49399, S. pyogenes ATCC 49399, read-out: MIC) of 0.25 µg/mL (≈ 0.173 µM).
“piperacillin/tazobactam [piperacillin-tazobactam]” was tested, and the MIC ([3]; S. pyogenes ATCC 49399) was 0.06 µg/mL.
